# Patent US20230183388A1, “EXOPOLY[…] LACTIC ACID BACTERIUM AND USE THEREOF” (Asahi Kohsan Corporation, priority 2017, published 2023)
# Target: T1, hyaluronidase (Bos taurus, UniProt Q2YDK3)
# T1 sequence (Q2YDK3 36-553): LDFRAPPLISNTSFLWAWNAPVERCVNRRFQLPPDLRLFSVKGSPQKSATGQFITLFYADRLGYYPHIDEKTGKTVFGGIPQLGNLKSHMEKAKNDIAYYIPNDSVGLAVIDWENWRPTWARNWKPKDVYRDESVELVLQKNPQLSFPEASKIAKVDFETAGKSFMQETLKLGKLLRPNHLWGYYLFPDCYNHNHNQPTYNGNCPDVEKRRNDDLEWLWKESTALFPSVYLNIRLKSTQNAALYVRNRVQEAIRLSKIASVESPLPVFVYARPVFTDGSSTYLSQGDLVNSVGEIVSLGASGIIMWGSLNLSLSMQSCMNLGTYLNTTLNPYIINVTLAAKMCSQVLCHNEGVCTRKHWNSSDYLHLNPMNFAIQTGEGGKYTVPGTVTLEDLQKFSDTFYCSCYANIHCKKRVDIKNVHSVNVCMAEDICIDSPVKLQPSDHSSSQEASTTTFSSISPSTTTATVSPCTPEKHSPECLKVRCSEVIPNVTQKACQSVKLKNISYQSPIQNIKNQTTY
# Test: Hyaluronidase activity inhibition of exopolysaccharides
# Format: biochemical
# Settings: hyaluronidase enzyme solution (MP Biomedicals), activated with Compound 48/80 and CaCl2, sodium hyaluronate substrate, pH 4.0, 37° C.
# Description: 5 μL of a hyaluronidase enzyme solution (MP Biomedicals, 4 mg/mL, 100 mM sodium acetate buffer (pH 4.0)) was added to 10 μL of an aqueous solution containing polysaccharides at an optional concentration, which was prepared from the polysaccharide sample containing the neutral polysaccharide fractions and the acidic polysaccharide fractions, the neutral polysaccharide fractions, and the acidic polysaccharide fractions, which were exopolysaccharides produced by the strain IJH-SONE68 and obtained in Example 4. The resultant mixture was incubated at 37° C. for 20 minutes. Thereafter, to the mixture, 10 μL of an enzyme-activating solution (0.5 mg/ml Compound 48/80 (manufactured by MP Biomedicals)), 3.75 mg CaCl2·2H2O, and 100 mM sodium acetate buffer (pH 4.0)) were added, and incubated again at 37° C. for 20 minutes. Subsequently, to the resultant mixture, 25 μL of a sodium hyaluronate solution (Wako Pure Chemical Industries, 0.8 mg/mL, 100 mM sodium acetate buffer (pH 4.0)) was added, and further reacted at 37° C. for 40 minutes. After the reaction, the reaction was terminated by adding 10 μL of 0.4 M NaOH aqueous solution. […] 40 μL of the reaction solution was mixed with 200 μL of p-DMAB solution (described below), the mixture was reacted at 37° C. for 20 minutes, and the absorbance at 585 nm was then measured. […]
structure (smiles),measurement,value
CC1(C)[C@@H](O[C@H]2O[C@H](C(=O)[O-])[C@@H](O)[C@H](O)[C@H]2O[C@@H]2O[C@H](C(=O)[O-])[C@@H](O)[C@H](O)[C@H]2O)CC[C@]2(C)[C@H]3C(=O)C=C4[C@@H]5C[C@@](C)(C(=O)O)CC[C@]5(C)CC[C@@]4(C)[C@]3(C)CC[C@@H]12.[K+].[K+] [Dipotassium glycyrrhizinate],IC50 (hyaluronidase activity inhibition),530 µg/mL
